# ChEMBL document CHEMBL4428064, “Discovery and antiparasitic activity of AZ960 as a Trypanosoma brucei ERK8 inhibitor” (Bioorg Med Chem, 2016)
# How the values were obtained:
# [1] = system: Trypanosoma brucei; assay: Antiparasitic activity against bloodstream form of Trypanosoma brucei 221 infected in mouse VSMC assessed as reduction in log10 RLU at 1 uM after 48 hrs by luciferase reporter gene assay; format: functional
# [2] = system: Trypanosoma brucei; assay: Antiparasitic activity against bloodstream form of Trypanosoma brucei 221 infected in mouse VSMC assessed as parasitic proliferation at 1 uM after 48 hrs by luciferase reporter gene assay; format: functional
# [3] = system: Trypanosoma brucei; assay: Antiparasitic activity against bloodstream form of Trypanosoma brucei 221 infected in mouse VSMC assessed as reduction in parasitic proliferation after 48 hrs by cell titer-glo based assay; format: functional, organism-based; conditions: Trypanosoma brucei, 221, VSMC
# [4] = molecular target: Tyrosine-protein kinase JAK2 (Homo sapiens, UniProt O60674, V617F); assay: Inhibition of JAK2 V617F mutant (unknown origin) using L-Ahx-IPTSPITTTYFFFKKK-COOH as substrate in presence of ATP
# Chain of Tyrosine-protein kinase JAK2 (O60674 whole entry V617F): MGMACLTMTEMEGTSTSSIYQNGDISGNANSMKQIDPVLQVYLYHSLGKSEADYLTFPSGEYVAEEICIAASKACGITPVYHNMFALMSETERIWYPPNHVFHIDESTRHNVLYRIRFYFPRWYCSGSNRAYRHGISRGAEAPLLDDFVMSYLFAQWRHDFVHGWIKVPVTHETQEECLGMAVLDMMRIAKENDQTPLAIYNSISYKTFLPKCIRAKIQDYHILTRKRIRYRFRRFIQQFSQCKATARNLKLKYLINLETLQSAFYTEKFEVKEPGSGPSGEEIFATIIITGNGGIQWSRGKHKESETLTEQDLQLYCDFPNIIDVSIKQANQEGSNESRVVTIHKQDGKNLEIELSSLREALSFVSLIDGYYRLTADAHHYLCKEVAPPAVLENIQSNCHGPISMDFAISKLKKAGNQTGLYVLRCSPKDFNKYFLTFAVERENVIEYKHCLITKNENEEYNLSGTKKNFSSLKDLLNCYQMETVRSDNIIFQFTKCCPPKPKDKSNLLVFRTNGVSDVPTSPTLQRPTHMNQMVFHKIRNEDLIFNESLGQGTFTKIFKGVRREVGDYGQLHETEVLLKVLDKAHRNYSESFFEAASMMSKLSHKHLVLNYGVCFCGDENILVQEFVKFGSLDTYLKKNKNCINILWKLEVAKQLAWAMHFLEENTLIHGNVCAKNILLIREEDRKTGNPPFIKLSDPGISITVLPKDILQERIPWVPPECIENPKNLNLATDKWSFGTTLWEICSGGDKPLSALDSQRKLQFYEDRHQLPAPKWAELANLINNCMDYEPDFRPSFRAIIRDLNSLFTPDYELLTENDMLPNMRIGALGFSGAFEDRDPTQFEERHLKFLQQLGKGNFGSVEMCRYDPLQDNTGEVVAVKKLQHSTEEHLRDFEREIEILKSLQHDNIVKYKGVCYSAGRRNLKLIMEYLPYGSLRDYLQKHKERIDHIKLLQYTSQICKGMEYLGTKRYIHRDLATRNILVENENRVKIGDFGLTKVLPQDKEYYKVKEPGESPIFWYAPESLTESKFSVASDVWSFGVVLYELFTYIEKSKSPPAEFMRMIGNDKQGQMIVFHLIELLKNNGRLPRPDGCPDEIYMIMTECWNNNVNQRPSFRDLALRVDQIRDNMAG
# [5] = system: Trypanosoma brucei; assay: Inhibition of GST-tagged Trypanosoma brucei ERK8 autophosphorylation expressed in Escherichia coli using myelin basic protein as substrate after 30 mins in presence of 32P-gamma-ATP by SDS-PAGE based autoradiography
# [6] = Inhibition of GST-tagged Trypanosoma brucei ERK8 expressed in Escherichia coli using recombinant myelin basic protein as substrate after 30 mins in presence of 32P-gamma-ATP by Michaelis-Menten analysis
# [7] = Selectivity ratio of IC50 for mouse vSMC to IC50 for bloodstream form of Trypanosoma brucei 221; format: toxicity; conditions: read-out: Ratio IC50
# [8] = Selectivity ratio of IC50 for rat ins-1 cells to IC50 for bloodstream form of Trypanosoma brucei 221; format: toxicity; conditions: read-out: Ratio IC50
# [9] = Cytotoxicity against mouse VSMC assessed as cell growth inhibition
# [10] = system: INS1; assay: Cytotoxicity against rat INS-1 cells assessed as cell growth inhibition; format: cell-based
Structure (SMILES),IC50 [3] [nM],inhibition [5] [%],reduction in log10 RLU [1],Activity [2] [%],further results
Nc1ccc(-c2ccc3ncc4ccc(=O)n(-c5cccc(C(F)(F)F)c5)c4c3c2)cn1,1000,–,2,0.6,–
O=C1c2ccccc2-c2n[nH]c3cccc1c23,570,–,2,0.26,–
COc1ccc(-c2ccc3ncc4c(c3c2)n(-c2ccc(N3CCNCC3)c(C(F)(F)F)c2)c(=O)n4C)cn1 [BGT-226 FREE BASE],950,–,2,0.12,–
Cn1c(=O)n(-c2ccc(C(C)(C)C#N)cc2)c2c3cc(-c4cnc5ccccc5c4)ccc3ncc21 [DACTOLISIB],–,–,2,0.49,–
CCS(=O)(=O)Nc1ccc2c(c1)/C(=C(/Nc1ccc(CN3CCCCC3)cc1)c1ccccc1)C(=O)N2 [HESPERADIN],–,–,2,0.27,–
CNC(=O)c1nn(C)c2c1C(C)(C)Cc1cnc(Nc3ccc(N4CCN(C)CC4)cc3)nc1-2 [MILCICLIB],610,< 20,2,0.58,–

# The remaining compounds from weak to strong by IC50 [3], led by results:
IC50 [3] [nM],inhibition [5] [%],Structure (SMILES),reduction in log10 RLU [1],Activity [2] [%],further results
260,< 20,CC(=O)NCC(=O)N1[C@@H]2CC[C@H]1c1ccc(Nc3ncc(C(F)(F)F)c(NC4CCC4)n3)cc12 [PF-03814735],2,1.16,–
210,< 20,Cc1ncc(-c2ccnc(Nc3ccc(S(C)(=O)=O)cc3)n2)n1C(C)C [AZD-5438],2,0.45,–
120,< 20,Cc1cc(Nc2nc(N[C@@H](C)c3ccc(F)cc3)c(C#N)cc2F)n[nH]1,2,0.26,"Ki [4]: 0.45 nM; Ki [6]: 1250 nM; selectivity ratio [7]: 208 to 210; selectivity ratio [8]: 83 to 84; IC50 ([9]; Mus musculus, VSMC): 25 µM; inhibition (INH) ([9]; mouse): Dose-dependent effect; IC50 ([10]; Rattus norvegicus, INS1): 10 µM; inhibition (INH) ([10]; rat, ins1): Dose-dependent effect"
120,–,CC(C)(C)c1cnc(CSc2cnc(NC(=O)C3CCNCC3)s2)o1 [BMS-387032],2,0.36,–
111,–,COc1ncc(-c2ccc3nccc(-c4ccnnc4)c3c2)cc1NS(=O)(=O)c1ccc(F)cc1F [OMIPALISIB],2,0.21,–
80,–,CCc1cnn2c(NCc3ccc[n+]([O-])c3)cc(N3CCCC[C@H]3CCO)nc12 [DINACICLIB],2,1.13,–
